Key:
[1] = Stereospecificity of the proliferation effect (D-isomer vs L-isomer); type: cell-based; details: 25 μM dose, p<0.001, FIG. 2
Excerpt: (§1) Cell proliferation assays. […] 5:69-84, 1995.
To assess whether ajulemic acid's effect was receptor-mediated, a preparation 95% enriched in the D-isomer of ajulemic acid was used to examine the stereospecificity of the effect observed above.

[2] = system: Calu6; assay: 48 hour MTT assay, Calu6 (lung); type: cell-based, human; details: 25 μM
Procedure: as §1
(§2) The proliferation of a number of human cell lines derived from a variety of cancer types (brain, breast, bladder, lung, and prostate) was tested for sensitivity to 25 μM of each agent for 48 hours.

[3] = system: A172; assay: 48 hour MTT assay, A172 (brain); type: cell-based, human; details: 25 μM
Procedure: as §1, §2

[4] = system: HS578T; assay: 48 hour MTT assay, HS578T (breast); type: cell-based, human; details: 25 μM
Procedure: as §1, §2

[5] = system: C6 cells; assay: Cell morphology (phase and electron microscopy), C6 cells; type: cell-based
Procedure: (§3) In order to investigate this effect further, the effect of ajulemic acid on cell cycle kinetics was assessed. C6 glioma cells were incubated for 24 hours in media containing 0.5% serum to synchronize them in G1/G0. The cells were then exposed to media containing 10% serum either with or without 25 μM ajulemic acid for two days.
Third, another distinctive feature of ajulemic acid's antitumor effect was the appearance of retractile bodies that could be easily visualized with phase microscopy. Both the number of cells that had refractile bodies as well as the number of refractile bodies/cell increased over time. After 48 hours, 83% of ajulemic acid-treated C6 cells had one or more refractile bodies compared to 27% to THC-treated cells (p<0.001, Chi-square analysis). The mean number of refractile bodies per cell was also much higher for ajulemic acid-treated cells compared to THC-treated cells (1.78±1.6 vs. 0.22±0.5 per cell, p<0.001, t-test).
To further explore the nature of the cell enlargement and refractile bodies, cells were examined under electron microscopy. […] In fact, these cells appeared metabolically active. […] Moreover, ajulemic acid-treated cells were enlarged and contained large lipid droplets, the identity of which was confirmed by […].

[6] = system: J82; assay: 48 hour MTT assay, J82 (bladder); type: cell-based, human; details: 25 μM
Procedure: as §1, §2

[7] = system: U118; assay: 48 hour MTT assay, U118 (brain); type: cell-based, human; details: 25 μM
Procedure: as §1, §2

[8] = system: U87; assay: 48 hour MTT assay, U87 (brain); type: cell-based, human; details: 25 μM
Procedure: as §1, §2

[9] = system: human cell lines derived from a variety of cancer types (brain, breast, bladder, lung, and prostate); assay: 48 hour MTT assay, panel of ten human cancer cell lines (mean); type: cell-based; details: 25 μM; for Inhibition level (mean±SD) over the human cancer cell lines: 48 hours, mean±SD of ten lines
Procedure: as §1, §2

[10] = system: U373; assay: 48 hour MTT assay, U373 (brain); type: cell-based, human; details: 25 μM
Procedure: as §1, §2

[11] = system: HT1376; assay: 48 hour MTT assay, HT1376 (bladder); type: cell-based, human; details: 25 μM
Procedure: as §1, §2

[12] = system: Du145; assay: 48 hour MTT assay, Du145 (prostate); type: cell-based, human; details: 25 μM
Procedure: as §1, §2

[13] = system: PC3; assay: 48 hour MTT assay, PC3 (prostate); type: cell-based, human; details: 25 μM
Procedure: as §1, §2

[14] = system: C6 cells; assay: Viability by trypan blue exclusion; type: cell-based; details: ajulemic acid-treated cells
[15] = system: C6 glioma cells; assay: Co-incubation of C6 glioma cells with a CB1 antagonist; type: cell-based; details: 3.2 μM of a specific CB1 antagonist
Excerpt: as §1
First, the compound's inhibition of cell proliferation was not reversible with a CB1 antagonist.

[16] = system: normal fibroblast cell line WI38; assay: MTT cell proliferation assay, WI38 cells; details: 25 μM, two days, three different experiments
[17] = system: C6 glioma cells; assay: MTT cell proliferation assay, C6 glioma cells; type: cell-based
Procedure: as §1, §2

[18] = system: C6 cells; assay: Lipid incorporation assay (14C-arachidonic acid); type: cell-based; details: 25 μM, 48 hours
[19] = system: human glioma cell line U87; assay: In vivo subcutaneous U87 nude mouse tumor model; parameters: species or system male nu/nu BALBc mice; details: 0.1 mg/kg thrice weekly, FIG. 4
Procedure: In vivo subcutaneous model. 10^6 U87 cells were injected into the right […] of male nu/nu BALBc mice (Charles River). Two days after inoculation, the mice received either 0.1 mg/kg ajulemic acid in 0.05 ml of safflower oil, or 0.05 ml safflower oil by oral administration. Thereafter, identical dosings were performed on each Monday, Wednesday, and Friday. When visible tumors appeared, the size of the tumors were estimated by averaging the values of two roughly perpendicular diameters measurements. Visible tumors were measured on the days of drug administration.
Whether ajulemic acid has in vivo antitumor activity was determined using a nude mouse tumor model. The growth of the human glioma cell line U87 injected subcutaneously in nude mice was assessed with and without ajulemic acid administration. For these experiments, ajulemic acid treatment was initiated two days after inoculation of 10^6 tumor cells in the mice. […] At day 25 post-inoculation, 5 of 5 control mice had tumors with a mean diameter of 16.3±3.2 mm, while the mean diameter in the treated group was 3.8±8.5 mm (n=5, p-0.015, t-test).

[20] = system: PKC activity in C6 cells; assay: Protein kinase C (PKC) assay; type: cell-based; details: 25 μM
Procedure: Protein kiniase C (PKC) assay. Cells were transferred into MEM media (0.5% serum) and cultured overnight. The next day, cells were treated with either DMSO or 25 μM ajulemic acid for the specified incubation time, after which the plates were trypsinized. 5×10^6 trypsinized cells were assayed for PKC activity using a kit (Calbiochem, cat. no. 53984).
Because diacyl glycerol (DAG) is an important signal transducer of protein kinase C, the effect of ajulemic acid treatment on the PKC activity in C6 cells was examined. […] At least two alternative explanations for this observation exist: (1) the PKC isozymes that were stimulated were those with slow growth, such as PKCδ; and (2) the increased DAG was modulating some other downstream mediator, such as β-chimaerin, to a greater extent such that the balance is towards anti-proliferation.

[21] = system: C6 glioma cells; assay: Flow cytometry/cell cycle analysis; type: cell-based; details: 25 μM, two days in 10% serum after synchronization; control 4.4 ± 0.3
Procedure: Flow cytometry/cell cycle analysis. For flow cytometry, cells were grown in low serum (0.5%) for two days to synchronize cells in G0/G1, after which they were placed in high serum (10%) for two days. The cells were then labeled with propidium iodide and fixed in 4% paraformaldehyde. Cells were examined using a MoFlo Facs sorter for DNA content.
as §3

[22] = system: WI38 cells; assay: Refractile bodies by phase microscopy, WI38 cells; type: cell-based, rat; details: same length of time and dosage (48 hours)

Q: For `CCCCCCC(C)(C)c1cc(O)c2c(c1)OC(C)(C)[C@@H]1CC=C(C(=O)O)C[C@@H]21` (single isomer, unassigned) [D-isomer of ajulemic acid], which “Potency of D-isomer compared to L-isomer of ajulemic acid” value [1] is on record?
A: marked decrease in the potency

Q: With `CCCCCc1cc(O)c2c(c1)OC(C)(C)[C@@H]1CC=C(C(=O)O)C[C@@H]21` [THC-11-oic acid, reference compound] as the molecule, how does the “Percent inhibition of human cancer cell line growth in 48 hour MTT assay” value (“Percent inhibition” for short) [2] read?
A: 19 ± 5%

Q: And the “Percent inhibition” value [3]?
A: 61 ± 2%

Q: What about the “Percent inhibition” value [4] of the same molecule?
A: 2 ± 1%

Q: And the “Refractile bodies (in words), C6 glioma cells” value ([5]; 25 μM, 48 hours)?
A: no retractile bodies were noted

Q: And the “Percent inhibition” value [6]?
A: 3 ± 1%

Q: What about the “Percent inhibition” value [7] of the same molecule?
A: 14 ± 3%

Q: And the “Percent inhibition” value [8]?
A: 5 ± 1%

Q: And the “Inhibition level (mean±SD) over the human cancer cell lines” value [9]?
A: 13.1±18.5%

Q: And the “Percent inhibition” value [10]?
A: 0%

Q: And the “Percent inhibition” value [11]?
A: 21 ± 12%

Q: What about the “Percent inhibition” value [12] of the same molecule?
A: 7 ± 3%

Q: What about the “Percent inhibition” value [13] of the same molecule?
A: 1 ± 1%

Q: Which results are given for `CCCCCCC(C)(C)c1cc(O)c2c(c1)OC(C)(C)[C@@H]1CC=C(C(=O)O)C[C@@H]21` [ajulemic acid, 1′,1′-dimethylheptyl-Δ^8-THC11-oic acid]?
A: Viability rate by trypan blue exclusion [14]: > 95%; Change of effect on co-incubation with CB1 antagonist (in words) [15]: slight potentiation; Percent inhibition of human cancer cell line growth in 48 hour MTT assay [2]: 69 ± 3%; Inhibition of WI38 cell proliferation [16]: 44%; Percent inhibition of human cancer cell line growth in 48 hour MTT assay [3]: 76 ± 1%; Percent inhibition of human cancer cell line growth in 48 hour MTT assay [4]: 60 ± 2%; Appearance of treated cells under electron microscopy [5]: neither apoptotic nor necrotic; Inhibition of C6 cell proliferation ([17]; 25 μM, two days, three different experiments): 65%; IC50 ([17]; C6 glioma cells, FIG. 1, read-out: IC50, inhibition of C6 glioma cells (MTT assay)): 55 µM; Content of tri- and di-glyceride relative to controls [18]: over three-fold greater than in controls; Neutral lipids (14C-arachidonic acid incorporation) versus basal levels ([18]; p<0.05 Dunnett's test, FIG. 3): significant increase above basal levels; Percent inhibition of human cancer cell line growth in 48 hour MTT assay [6]: 57 ± 3%; Percent inhibition of human cancer cell line growth in 48 hour MTT assay [7]: 60 ± 2%; Percent inhibition of human cancer cell line growth in 48 hour MTT assay [8]: 54 ± 2%; Inhibition level (mean±SD) over the human cancer cell lines [9]: 61.3 ±12.1%; Effectiveness compared to THC in the ten lines ([9]; p<0.05, in six of the ten lines tested): significantly more effective; Tumor appearance and size (in words) [19]: A delay in both the appearance and size of tumors; Onset of PKC activity increase [20]: increased within five minutes; PKC activity relative to control ([20]; for one hour): approximately two-fold above that of control; Percent inhibition of human cancer cell line growth in 48 hour MTT assay [10]: 34 ± 1%; S (mean % ± SD) [21]: 13.0%; Refractile bodies (in words), WI38 cells [22]: no retractile bodies were noted; Percent inhibition of human cancer cell line growth in 48 hour MTT assay [11]: 60 ± 2%; Percent inhibition of human cancer cell line growth in 48 hour MTT assay [12]: 74 ± 2%; Percent inhibition of human cancer cell line growth in 48 hour MTT assay [13]: 69 ± 2%

Q: For `CCCCCc1cc(O)c2c(c1)OC(C)(C)[C@@H]1CCC(C)=C[C@@H]21` [Δ^9-THC, tetrahydrocannabinol, reference compound], which “Decrease in potency on co-incubation with CB1 antagonist” value [15] is on record?
A: 150%

— patent US6914072B2, “Cannabinoid drugs” (Indevus Pharmaceuticals, Inc., priority 2000, dated 2005)
